Patent publication US20230135894A1, “MK2 DEGRADERS AND USES THEREOF” (Kymera Therapeutics, Inc., priority 2021, published 2023)

How the values were obtained:
MK2 [1] = target: T1, MK2 (Homo sapiens, UniProt P49137); test: MK2 degradation in human THP-1 monocytic cells (MSD, 24 h); assay type: cell-based; design: endogenous in cells; key to MK2 MSD THP-1 degradation 24 h GMean External Abs DC50: A (<0.001 μM); B (0.001-0.01 μM); C (0.01-0.1 μM); D (>0.1 μM); —: “-”=not tested or inactive; conditions: for Dmax: THP-1, THP-1 cells; for DC50: read-out: MK2 MSD THP-1 degradation 24 h GMean External Abs DC50
T1 sequence (P49137 whole entry): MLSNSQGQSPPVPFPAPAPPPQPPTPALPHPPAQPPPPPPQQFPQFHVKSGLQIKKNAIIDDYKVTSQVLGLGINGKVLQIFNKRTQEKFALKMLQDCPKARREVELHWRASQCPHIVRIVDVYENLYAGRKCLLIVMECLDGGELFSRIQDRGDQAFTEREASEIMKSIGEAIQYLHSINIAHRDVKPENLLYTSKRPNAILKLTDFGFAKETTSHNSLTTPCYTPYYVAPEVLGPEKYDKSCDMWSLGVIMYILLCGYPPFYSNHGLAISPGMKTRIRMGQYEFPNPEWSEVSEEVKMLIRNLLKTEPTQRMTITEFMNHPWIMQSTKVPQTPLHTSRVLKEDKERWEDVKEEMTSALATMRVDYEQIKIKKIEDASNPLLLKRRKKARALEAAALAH
Summary of the method: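 THP-1 cells (200,000/well) treated 24 h at 37 °C with compound dilution series (up to 10 points, 0.1% DMSO). MK2 in RIPA lysates quantified by MSD sandwich immunoassay. DC50 from 4-parameter logistic fit, DMSO-treated cells as high and lysis buffer as low signal.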

MK2 [2] = target: T1, MK2; test: MK2 degradation in human SW1353 cells (MSD, 24 h); assay type: cell-based; design: endogenous in cells; host or cells: SW-1353 (ATCC HTB-94); conditions: for Dmax: read-out: MK2 MSD SW 1353 24 h Dmax %; for DC50: read-out: MK2 MSD SW1353 degradation 24 h GMean External Abs DC50
Summary of the method: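 SW1353 chondrosarcoma cells were treated with up to 10-point serial dilutions (0.1% DMSO) for 24 h at 37 °C, then lysed in RIPA buffer. MK2 levels were quantified by MSD sandwich immunoassay; DC50 came from a 4-parameter logistic fit normalised to DMSO-treated cells (high) and lysis buffer (low).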

Dmax (MK2 [1])	DC50 (MK2 [1]; THP-1 cells)	Dmax (MK2 [2])	DC50 (MK2 [2])	MK2 MSD THP-1 degradation 24 h GMean External Abs DC50 (MK2 [1]; THP-1 cells)	Structure (SMILES)
> 75%	< 1 nM	> 75%	< 1 nM		Cn1c(=O)n(C2CCC(=O)NC2=O)c2ccc(N3CCC(CN4CCN(c5ccc(-c6cc(-c7cc8c([nH]7)C7(CCC7)CNC8=O)ccn6)cn5)CC4)CC3)cc21 (stereo not shown) [Compound I-213]
50 to 75%	1 to 10 nM	> 75%	< 1 nM		C[C@@H]1CNc2c(sc3ccc4nc(-c5ccc(N6CCN(C[C@@H]7CCN(c8ccc9c(c8)n(C)c(=O)n9C8CCC(=O)NC8=O)C7)CC6)cc5)ccc4c23)C(=O)N1 (stereo partly shown) [Compound I-214]
50 to 75%		> 75%	< 1 nM	—	C[C@@H]1CNc2c(sc3ccc4nc(-c5ccc(N6CCN(CCOc7ccc8c(c7)n(C)c(=O)n8C7CCC(=O)NC7=O)CC6)cc5)ccc4c23)C(=O)N1 (stereo partly shown) [Compound I-215]
> 75%	< 1 nM	> 75%	1 to 10 nM		C[C@@H]1CNc2c(sc3ccc4nc(-c5cc(Cl)cc(N6CCN(CC7CCN(c8ccc9c(c8)n(C)c(=O)n9C8CCC(=O)NC8=O)CC7)CC6)c5)ccc4c23)C(=O)N1 (stereo partly shown) [Compound I-216]
< 50%	> 100 nM	< 50%	> 100 nM		Cc1cc(N2CCN(CC3CCN(c4ccc5c(c4)n(C)c(=O)n5C4CCC(=O)NC4=O)CC3)CC2)ccc1-c1cc(-c2cc3c([nH]2)C2(CC2)CNC3=O)ccn1 (stereo not shown) [Compound I-217]
> 75%	< 1 nM	> 75%	< 1 nM		Cn1c(=O)n(C2CCC(=O)NC2=O)c2ccc(N3CCC(CN4CCN(c5ccc(-c6cc(-c7cc8c([nH]7)C7(CC7)CNC8=O)ccn6)c(F)c5)CC4)CC3)cc21 (stereo not shown) [Compound I-218]
< 50%	> 100 nM	< 50%	> 100 nM		C[C@@H]1CNc2c(sc3ccc4nc(-c5cc(N6CCN(CC7CCN(c8ccc9c(c8)n(C)c(=O)n9C8CCC(=O)NC8=O)CC7)CC6)nc(C(C)(C)O)c5)ccc4c23)C(=O)N1 (stereo partly shown) [Compound I-219]
< 50%	> 100 nM	< 50%	> 100 nM		Cc1cnc(-c2ccnc(C(=O)NCCCCCCc3ccc4c(c3)n(C)c(=O)n4C3CCC(=O)NC3=O)n2)cc1-n1c(C)cc(OCc2ncc(F)cc2F)c(Cl)c1=O (stereo not shown) [Compound I-220]
> 75%	< 1 nM	> 75%	< 1 nM		C[C@@H]1CNc2c(sc3ccc4nc(-c5ccc(N6CCN(C[C@H]7C[C@@H](c8ccc9c(c8)n(C)c(=O)n9C8CCC(=O)NC8=O)C7)CC6)cc5)ccc4c23)C(=O)N1 (stereo partly shown) [Compound I-221]
> 75%	< 1 nM	> 75%	< 1 nM		C[C@@H]1CNc2c(sc3ccc4nc(-c5ccc(N6CCN(C[C@H]7C[C@H](c8ccc9c(c8)n(C)c(=O)n9C8CCC(=O)NC8=O)C7)CC6)cc5)ccc4c23)C(=O)N1 (stereo partly shown) [Compound I-222]
< 50%	> 100 nM	< 50%	> 100 nM		Cn1c(=O)n(C2CCC(=O)NC2=O)c2ccc(N3CCC(CN4CCN(c5cc(-c6ccccc6)cc(-c6cc(-c7cc8c([nH]7)CCNC8=O)ccn6)c5)CC4)CC3)cc21 (stereo not shown) [Compound I-224]
< 50%	> 100 nM	< 50%	> 100 nM		Cn1c(=O)n(C2CCC(=O)NC2=O)c2ccc(N3CCC(CN4CCN(c5cc(C#N)cc(-c6cc(-c7cc8c([nH]7)CCNC8=O)ccn6)c5)CC4)CC3)cc21 (stereo not shown) [Compound I-225]
> 75%	< 1 nM	> 75%	< 1 nM		Cn1c(=O)n(C2CCC(=O)NC2=O)c2ccc(N3CCC(CN4CCN(c5ccc(-c6cc(-c7cc8c([nH]7)CCNC8=O)ccn6)c(F)c5)CC4)CC3)cc21 (stereo not shown) [Compound I-226]
< 50%	> 100 nM	< 50%	> 100 nM		Cc1cc(N2CCN(CC3CCN(c4ccc5c(c4)n(C)c(=O)n5C4CCC(=O)NC4=O)CC3)CC2)ccc1-c1cc(-c2cc3c([nH]2)CCNC3=O)ccn1 (stereo not shown) [Compound I-229]
> 75%	< 1 nM	> 75%	< 1 nM		CC(C)Oc1cc(-c2ccc3c(ccc4sc5c(c43)NC[C@@H](C)NC5=O)n2)cc(N2CCN(CC3CCN(c4ccc5c(c4)n(C)c(=O)n5C4CCC(=O)NC4=O)CC3)CC2)c1 (stereo partly shown) [Compound I-230]
> 75%	1 to 10 nM	> 75%	1 to 10 nM		CC(C)c1cc(-c2ccc3c(ccc4sc5c(c43)NC[C@@H](C)NC5=O)n2)cc(N2CCN(CC3CCN(c4ccc5c(c4)n(C)c(=O)n5C4CCC(=O)NC4=O)CC3)CC2)c1 (stereo partly shown) [Compound I-231]

Dmax (MK2 [1])	DC50 (MK2 [1]; THP-1 cells)	Dmax (MK2 [2])	DC50 (MK2 [2])	MK2 MSD THP-1 degradation 24 h GMean External Abs DC50 (MK2 [1]; THP-1 cells)	Structure (SMILES)
> 75%	< 1 nM	> 75%	< 1 nM		C[C@@H]1CNc2c(sc3ccc4nc(-c5ccc([C@H]6CC[C@H](CN7CCN(c8ccc9c(c8)n(C)c(=O)n9C8CCC(=O)NC8=O)CC7)CC6)nc5)ccc4c23)C(=O)N1 (stereo partly shown) [Compound I-232]
> 75%	1 to 10 nM	> 75%	1 to 10 nM		CCc1cc(-c2ccc3c(ccc4sc5c(c43)NC[C@@H](C)NC5=O)n2)cc(N2CCN(CC3CCN(c4ccc5c(c4)n(C)c(=O)n5C4CCC(=O)NC4=O)CC3)CC2)c1 (stereo partly shown) [Compound I-233]
> 75%	< 1 nM	> 75%	< 1 nM		Cc1nc(N2CCN(CC3CN(c4ccc5c(c4)n(C)c(=O)n5C4CCC(=O)NC4=O)C3)CC2)ccc1-c1ccc2c(ccc3sc4c(c32)NC[C@@H](C)NC4=O)n1 (stereo partly shown) [Compound I-234]
> 75%	< 1 nM	> 75%	< 1 nM		C[C@@H]1CNc2c(sc3ccc4nc(-c5ccc(N6CCN(CC7CN(c8ccc9c(c8)n(C)c(=O)n9C8CCC(=O)NC8=O)C7)CC6)cc5Cl)ccc4c23)C(=O)N1 (stereo partly shown) [Compound I-235]
> 75%	< 1 nM	> 75%	< 1 nM		Cc1cc(N2CCN(CC3CN(c4ccc5c(c4)n(C)c(=O)n5C4CCC(=O)NC4=O)C3)CC2)ccc1-c1ccc2c(ccc3sc4c(c32)NC[C@@H](C)NC4=O)n1 (stereo partly shown) [Compound I-236]
> 75%	< 1 nM	> 75%	< 1 nM		C[C@@H]1CNc2c(sc3ccc4nc(-c5ccc(N6CCN(CC7CN(c8ccc9c(c8)n(C)c(=O)n9C8CCC(=O)NC8=O)C7)CC6)cc5F)ccc4c23)C(=O)N1 (stereo partly shown) [Compound I-237]
> 75%	< 1 nM	> 75%	< 1 nM		COc1cc(-c2ccc3c(ccc4sc5c(c43)NC[C@@H](C)NC5=O)n2)cc(N2CCN(CC3CCN(c4ccc5c(c4)n(C)c(=O)n5C4CCC(=O)NC4=O)CC3)CC2)c1 (stereo partly shown) [Compound I-239]
> 75%	< 1 nM	> 75%	< 1 nM		C[C@@H]1CNc2c(sc3ccc4nc(-c5cc(C#N)cc(N6CCN(CC7CCN(c8ccc9c(c8)n(C)c(=O)n9C8CCC(=O)NC8=O)CC7)CC6)c5)ccc4c23)C(=O)N1 (stereo partly shown) [Compound I-240]
50 to 75%	1 to 10 nM	> 75%	1 to 10 nM		Cn1c(=O)n(C2CCC(=O)NC2=O)c2cccc(CCCN3CCN(c4ccc(-c5cc(-c6cc7c([nH]6)C6(CC6)CNC7=O)ccn5)cc4)CC3)c21 (stereo not shown) [Compound I-241]
50 to 75%	10 to 100 nM	> 75%	1 to 10 nM		Cn1c(=O)n(C2CCC(=O)NC2=O)c2ccc(CCCN3CCN(c4ccc(-c5cc(-c6cc7c([nH]6)C6(CC6)CNC7=O)ccn5)cc4)CC3)cc21 (stereo not shown) [Compound I-242]
50 to 75%	< 1 nM	> 75%	< 1 nM		Cn1c(=O)n(C2CCC(=O)NC2=O)c2ccc(N3CCC(CN4CCN(c5ccc(-c6cc(-c7cc8c([nH]7)C7(CC7)CNC8=O)ccn6)cn5)CC4)CC3)cc21 (stereo not shown) [Compound I-243]
> 75%	< 1 nM	> 75%	< 1 nM		Cn1c(=O)n(C2CCC(=O)NC2=O)c2ccc(N3CCC(CN4CCN(c5ccc(-c6cc(-c7cc8c([nH]7)C7(CC7)CNC8=O)ccn6)cc5)CC4)CC3)cc21 (stereo not shown) [Compound I-244]
> 75%	< 1 nM	> 75%	< 1 nM		C[C@@H]1CNc2c(sc3ccc4nc(-c5ccc(N6CCN(CC7CN(c8cccc9c8n(C)c(=O)n9C8CCC(=O)NC8=O)C7)CC6)nc5)ccc4c23)C(=O)N1 (stereo partly shown) [Compound I-245]
> 75%	< 1 nM	> 75%	< 1 nM		C[C@@H]1CNc2c(sc3ccc4nc(-c5ccc(N6CCN(C7CC(c8cccc9c8n(C)c(=O)n9C8CCC(=O)NC8=O)C7)CC6)cc5)ccc4c23)C(=O)N1 (stereo partly shown) [Compound I-246]
> 75%	1 to 10 nM	> 75%	1 to 10 nM		C[C@@H]1Cc2[nH]c(-c3ccnc(-c4ccc(N5CCC(CN6CCC(c7cccc8c7n(C)c(=O)n8C7CCC(=O)NC7=O)CC6)CC5)cc4)c3)cc2C(=O)N1 (stereo partly shown) [Compound I-248]
